Test [1] has as its system U138-MG human glioma cell. The test can be described thus: Cell proliferation analysis (MTT). Type of test: cell-based. The note with it: 10 µM, two days, MTT; for activity at 10 µM / inhibition at 10 µM: Homo sapiens, 48 h. How it is done: (§1) U87-MG and U138-MG human glioma cell, were incubated with 10% fetal bovine serum (FBS) (Gibco, 10500-064), 1% L-glutamine (Gibco, 25030-024), in a humidified incubator with 5% CO2 at 37 °C. The cells were contained in DMEM High Glucose (Gibco, 41966-029) supplemented with 1% penicillin-streptomycin (P/S) (Gibco 15140-122) solution. The cytotoxic effects of the target compounds on U87-MG and U138-MG cell lines were assessed using the MTT (Thiazolyl Blue Tetrazolium Bromide) method. 7×10^3 cells were seeded into a 96-well plate in 100 µl DMEM High Glucose 10% FBS and 1% P/S. 24 hours after cell incubation, each target compound was added at a dose of 10 µM and the drug treatment was carried out for two days. After the incubation period, 10 µL of MTT solution was added to each well (5 mg/ml in PBS). After 2 hours, MTT solutions were removed from the wells. Then, 100 µl DMSO was added, and mixed to dissolve the formazan crystals. Cell proliferation was analysed by measuring the absorbance of dissolved formazan at a wavelength of 570 nm.
(§2) IC50 values were determined using the same method as above wherein the cells were treated with the target compounds at different doses.

Another test has as its system U87-MG human glioma cell. In words: Cell proliferation analysis (MTT). Type of test: cell-based. Conditions: 10 µM, two days, MTT; for activity at 10 µM / inhibition at 10 µM: Homo sapiens, U-87 MG, 48 h. Here is the method: as §1, §2

In general, inhibition refers to the change of the read-out against control, counted positive when it falls. With `CCOC(=O)CN1C(=O)CCc2cc(OCCCCc3nnnn3C3CCCCC3)ccc21` [TR-G102, ethyl 2-(6-(4-(1-cyclohexyl-1H-tetrazol-5-yl)butoxy)-2-oxo-3,4-dihydroquinolin-1(2H)-yl)acetate], in test [1], the activity at 10 µM is 49% and the inhibition at 10 µM came out at 51%. Besides, in the test with U87-MG human glioma cell, the activity at 10 µM amounted to 66% and the inhibition at 10 µM is 35%.

Consider `CCCC(CCC)C(=O)Oc1ccc2c(c1)CCC(=O)N2` [TR-G062, 2-oxo-1,2,3,4-tetrahydroquinolin-6-yl 2-propylpentanoate], for which, in test [1], the activity at 10 µM was determined as 87% and the inhibition at 10 µM was 13%. Also, in the test with U87-MG human glioma cell, the activity at 10 µM is 87% and the inhibition at 10 µM is 13%.

For `O=C1CCc2cc(OC(=O)Nc3ccccc3Br)ccc2N1` [TR-G136, 2-oxo-1,2,3,4-tetrahydroquinolin-6-yl (2-bromophenyl)carbamate], in test [1], the “Cell Proliferation (%)” value is recorded as 60% and the inhibition at 10 µM came out at 40%. Also, in the test on U87-MG human glioma cell, the “Cell Proliferation (%)” value is reported as 89% and the inhibition at 10 µM stood at 11%.

As to `O=C(COc1ccc2c(c1)CCC(=O)N2)N/N=C/c1ccco1` [TR-G025, (E)-N'-(furan-2-ylmethylene)-2-((2-oxo-1,2,3,4-tetrahydroquinolin-6-yl)oxy)acetohydrazide], in test [1], the activity at 10 µM is 90% and the inhibition at 10 µM was determined as 10%. For the same compound, in the test with U87-MG human glioma cell, the activity at 10 µM came out at 75% and the inhibition at 10 µM was found to be 25%.

Take `COc1ccc(/C=N/NC(=O)COc2ccc3c(c2)CCC(=O)N3)cc1` [TR-G026, (E)-N'-(4-methoxybenzylidene)-2-((2-oxo-1,2,3,4-tetrahydroquinolin-6-yl)oxy)acetohydrazide]: in test [1], the activity at 10 µM was found to be 90% and the inhibition at 10 µM was 10%. Further, in the test with U87-MG human glioma cell, the activity at 10 µM turned out to be 92% and the inhibition at 10 µM is 8%.

Regarding `Nc1ncc(/C=N/NC(=O)COc2ccc3c(c2)CCC(=O)N3)cn1` [TR-G076, (E)-N'-((2-aminopyrimidin-5-yl)methylene)-2-((2-oxo-1,2,3,4-tetrahydroquinolin-6-yl)oxy)acetohydrazide], in test [1], the activity at 10 µM is 92% and the inhibition at 10 µM turned out to be 8%. In the test with U87-MG human glioma cell, the activity at 10 µM came to 97% and the inhibition at 10 µM came out at 3%.

As for `O=C1CCc2cc(OCCOCc3ccccc3)ccc2N1` [TR-G001, 6-(2-(benzyloxy)ethoxy)-3,4-dihydroquinolin-2(1H)-one], in test [1], the “Cell Proliferation (%)” value is on record as 88% and the inhibition at 10 µM is 12%. Also, in the test on U87-MG human glioma cell, the “Cell Proliferation (%)” value was 78% and the inhibition at 10 µM amounted to 22%.

For the compound `COc1cc(NC(=O)COc2ccc3c(c2)CCC(=O)N3)cc(OC)c1OC` [TR-G094, 2-((2-oxo-1,2,3,4-tetrahydroquinolin-6-yl)oxy)-N-(3,4,5-trimethoxyphenyl)acetamide], the values for the activity at 10 µM (in test [1]; in the test with U87-MG human glioma cell) were 80% and 78%, respectively. Besides, the figures for the inhibition at 10 µM (in test [1]; in the test with U87-MG human glioma cell) were 20% and 22%, respectively.

For `COc1ccc(NC(=O)COc2ccc3c(c2)CCC(=O)N3)cc1OC` [TR-G077, N-(3,4-dimethoxyphenyl)-2-((2-oxo-1,2,3,4-tetrahydroquinolin-6-yl)oxy)acetamide], in test [1], the activity at 10 µM came out at 88% and the inhibition at 10 µM amounted to 12%. Further, in the test on U87-MG human glioma cell, the activity at 10 µM came to 88% and the inhibition at 10 µM was 12%.

As for `O=C1CCc2cc(OC(=O)c3cccc([N+](=O)[O-])c3)ccc2N1` [TR-G081, 2-oxo-1,2,3,4-tetrahydroquinolin-6-yl 3-nitrobenzoate], the activity at 10 µM in test [1] is 108%; in the test on U87-MG human glioma cell, 65%. For the same compound, the results for the inhibition at 10 µM (in test [1]; in the test with U87-MG human glioma cell) were -8% and 35%, respectively.

On to `O=C1CCc2cc(OC(=O)Nc3cccc4ccccc34)ccc2N1` [TR-G135, 2-oxo-1,2,3,4-tetrahydroquinolin-6-yl naphthalene-1-ylcarbamate], for which the activity at 10 µM in test [1] was 80%; with U87-MG human glioma cell, 71%. Also, the inhibition at 10 µM in test [1] was 20%; in the test on U87-MG human glioma cell, 29%.

Take `CCCCCCn1cc(COc2ccc3c(c2)CCC(=O)N3)nn1` [TR-G125, 6-((1-hexyl-1H-1,2,3-triazol-4-yl)methoxy)-3,4-dihydroquinolin-2(1H)-one]: the values for the activity at 10 µM (in test [1]; in the test with U87-MG human glioma cell) were 82% and 64%, respectively. For the same compound, the figures for the inhibition at 10 µM (in test [1]; in the test with U87-MG human glioma cell) were 18% and 36%, respectively.

For the compound `O=C(COc1ccc2c(c1)CCC(=O)N2)N/N=C1\C(=O)Nc2ccc([N+](=O)[O-])cc21` [TR-G056, (Z)-N'-(5-nitro-2-oxoindolin-3-ylidene)-2-((2-oxo-1,2,3,4-tetrahydroquinolin-6-yl)oxy)acetohydrazide], the activity at 10 µM in test [1] was found to be 83%; in the test on U87-MG human glioma cell it was 99%. The inhibition at 10 µM in test [1] is 17%; in the test with U87-MG human glioma cell, 1%.

In the case of `O=C1CCc2cc(OC(=O)Nc3ccc(F)cc3)ccc2N1` [TR-G140, 2-oxo-1,2,3,4-tetrahydroquinolin-6-yl (4-fluorophenyl)carbamate], in test [1], the activity at 10 µM stood at 91% and the inhibition at 10 µM was found to be 9%. Moreover, in the test on U87-MG human glioma cell, the activity at 10 µM came out at 80% and the inhibition at 10 µM was 20%.

Take `O=C1CCc2cc(OC(=O)Nc3ccc([N+](=O)[O-])cc3)ccc2N1` [TR-G133, 2-oxo-1,2,3,4-tetrahydroquinolin-6-yl (4-nitrophenyl)carbamate]: in test [1], the activity at 10 µM amounted to 77% and the inhibition at 10 µM was 23%. In the test with U87-MG human glioma cell, the activity at 10 µM was 93% and the inhibition at 10 µM stood at 7%.

For the compound `NNC(=O)COc1ccc2c(c1)CCC(=O)N2` [TR-G019, 2-((2-oxo-1,2,3,4-tetrahydroquinolin-6-yl)oxy)acetohydrazide], in test [1], the activity at 10 µM is 75% and the inhibition at 10 µM came out at 25%. For the same compound, in the test on U87-MG human glioma cell, the activity at 10 µM worked out at 75% and the inhibition at 10 µM is 25%.

In the case of `O=C1CCc2cc(OCCBr)ccc2N1` [TR-G017, 6-(2-bromoethoxy)-3,4-dihydroquinolin-2(1H)-one], in test [1], the activity at 10 µM came out at 82% and the inhibition at 10 µM came out at 18%. Besides, in the test with U87-MG human glioma cell, the activity at 10 µM was 94% and the inhibition at 10 µM was determined as 6%.

Turning to `O=C1CCc2cc(OCC3CC(c4c(F)cccc4Cl)=NO3)ccc2N1` (stereo not shown) [TR-G150, 6-((3-(2-chloro-6-fluorophenyl)-4,5-dihydroisoxazol-5-yl)methoxy)-3,4-dihydroquinolm-2(1H)-one], in test [1], the activity at 10 µM came out at 79% and the inhibition at 10 µM is 21%. In addition, in the test on U87-MG human glioma cell, the activity at 10 µM was 97% and the inhibition at 10 µM came out at 3%.

For the compound `COc1ccccc1NC(=O)Oc1ccc2c(c1)CCC(=O)N2` [TR-G132, 2-oxo-1,2,3,4-tetrahydroquinolin-6-yl (2-methoxyphenyl)carbamate], in test [1], the activity at 10 µM stood at 73% and the inhibition at 10 µM came to 27%. Further, in the test with U87-MG human glioma cell, the activity at 10 µM came to 78% and the inhibition at 10 µM was found to be 22%.

For the compound `O=C(COc1ccc2c(c1)CCC(=O)N2)N/N=C/c1ccccn1` [TR-G059, (E)-2-((2-oxo-1,2,3,4-tetrahydroquinolin-6-yl)oxy)-N'-(pyridin-2-ylmethylene)acetohydrazide], the activity at 10 µM in test [1] is 81%; in the test with U87-MG human glioma cell, 79%. Further, the values for the inhibition at 10 µM (in test [1]; in the test on U87-MG human glioma cell) were 20% and 21%, respectively.

On to `O=C1CCc2cc(OS(=O)(=O)c3ccc(C(F)(F)F)cc3)ccc2N1` [TR-G073, 2-oxo-1,2,3,4-tetrahydroquinolin-6-yl 4-(trifluoromethyl)benzenesulfonate], for which, in test [1], the activity at 10 µM is 94% and the inhibition at 10 µM worked out at 6%. For the same compound, in the test with U87-MG human glioma cell, the activity at 10 µM was found to be 87% and the inhibition at 10 µM turned out to be 13%.

With `O=C(COc1ccc2c(c1)CCC(=O)N2)N/N=C/C1CCCCC1` [TR-G029, (E)-N'-(cyclohexylmethylene)-2-((2-oxo-1,2,3,4-tetrahydroquinolin-6-yl)oxy)acetohydrazide], in test [1], the activity at 10 µM stood at 68% and the inhibition at 10 µM turned out to be 32%. In the test with U87-MG human glioma cell, the activity at 10 µM came out at 82% and the inhibition at 10 µM worked out at 18%.

For the compound `O=C1CCc2cc(OCc3cn(Cc4ccc(F)cc4)nn3)ccc2N1` [TR-G086, 6-((1-(4-fluorobenzyl)-1H-1,2,3-triazol-4-yl)methoxy)-3,4-dihydroquinolin-2(1H)-one], in test [1], the activity at 10 µM is 79% and the inhibition at 10 µM turned out to be 21%. In the test on U87-MG human glioma cell, the activity at 10 µM came out at 79% and the inhibition at 10 µM turned out to be 21%.

`CCCN1C(=O)CCc2cc(OCCCCc3nnnn3C3CCCCC3)ccc21` [TR-G105, 6-(4-(1-cyclohexyl-1H-tetrazol-5-yl)butoxy)-1-propyl-3,4-dihydroquinolin-2(1H)-one]: the values for the activity at 10 µM (in test [1]; in the test with U87-MG human glioma cell) were 73% and 48%, respectively. For the same compound, the figures for the inhibition at 10 µM (in test [1]; with U87-MG human glioma cell) were 28% and 52%, respectively.

As to `C=CCOC(=O)N1C(=O)CCc2cc(OCCCCc3nnnn3C3CCCCC3)ccc21` [TR-G114, Allyl 6-(4-(1-cyclohexyl-1H-tetrazol-5-yl)butoxy)-2-oxo-3,4-dihydroquinoline-1(2H)-carboxylate], in test [1], the activity at 10 µM is 85% and the inhibition at 10 µM came out at 15%. Besides, in the test with U87-MG human glioma cell, the activity at 10 µM was 86% and the inhibition at 10 µM turned out to be 14%.
